This assay has as its target acyl-CoA:cholesterol acyltransferase (ACAT). The assay can be described thus: in vitro ACAT inhibition test: radio-labeled cholesteryl oleate formed from radio-labeled oleic acid in intestinal microsomes. The assay is classed as biochemical. The conditions noted are these: concentration required to inhibit cholesteryl oleate formation to 50% of control; tissue preparation containing rabbit intestinal microsomes. The procedure:
The ability of representative compounds of the present invention to inhibit ACAT was measured using an in vitro test more fully described in Field, F. J. and Salone, R. G., Biochemica et Biophysica 712: 557-570 (1982). The test assesses the ability of a test compound to inhibit the acylation of cholesterol by oleic acid by measuring the amount of radio-labeled cholesterol oleate formed from radio-labeled oleic acid in a tissue preparation containing rabbit intestinal microsomes.
The data appear in the Table where they are expressed as IC₅₀ values; i.e. the concentration of test compound required to inhibit cholesteryl oleate formation to 50% of control.
With `CCCCc1ccc(OCCCC(C)(C)C(=O)NC(C)c2ccccn2)cc1` (centres unmarked) [Example 5, 5-(4-butylphenoxy)-2,2-dimethyl-N-[1-(2-pyridinyl)ethyl]pentanamide], the midpoint of inhibition, the IC50, lay at 800 nM. With `CCCCc1ccc(OCCCC(C)(C)C(=O)Nc2ccccc2OC)cc1` [Example 2, 5-(4-butylphenoxy)-N-(2-methoxyphenyl)-2,2-dimethylpentanamide], half-maximal inhibition (IC50) required 4300 nM. This IC50 lies about 5.4-fold higher than the previous one. Turning to `CCCCc1ccc(OCCCC(C)(C)C(=O)Nc2c(OC)ncnc2OC)cc1` [Example 7, 5-(4-butylphenoxy)-N-(4,6-dimethoxy-5-pyrimidinyl)-2,2-dimethylpentanamide], 9000 nM corresponded to half-maximal inhibition (IC50). `CC(C)(CCCOc1ccc(C(C)(C)C)cc1)C(=O)Nc1ccc(F)cc1F` [Example 9, N-(2,4-difluorophenyl)-5-[4-(1,1-dimethylethyl)phenoxy]-2,2-dimethylpentanamide]: the IC50 (in general, the concentration at which inhibition is half-maximal) was 1200 nM. This IC50 is about 7.5-fold lower than that of the molecule before. `CCCCc1ccc(OCCCC(C)(C)C(=O)Nc2c(OC)cc(OC)cc2OC)cc1` [Example 4, 5-(4-butylphenoxy)-2,2-dimethyl-N-(2,4,6-trimethoxyphenyl)-pentanamide] returned an IC50 of 460 nM. With `CCCCCCc1ccc(OCCCC(C)(C)C(=O)NC(C)c2ccccn2)cc1` (centres unmarked) [Example 15, 5-(4-hexylphenoxy)-2,2-dimethyl-N-[1-(2-pyridinyl)ethyl]pentanamide] the figure was 700 nM; with `CC(NC(=O)C(C)(C)CCCOc1ccc(C(C)(C)C)cc1)c1ccccn1` (centres unmarked) [Example 12, 5-[4-(1,1-dimethylethyl)phenoxy]-2,2-dimethyl-N-[1-(2-pyridinyl)ethyl]pentanamide], 700 nM. Take `CCCCCCCCc1ccc(OCCCC(C)(C)C(=O)Nc2c(OC)cc(OC)cc2OC)cc1` [Example 16, 2,2-dimethyl-5-(4-octylphenoxy)-N-(2,4,6-trimethoxyphenyl)pentanamide]: the IC50 is 800 nM.

`CCCCCCCCc1ccc(OCCCC(C)(C)C(=O)NC(C)c2ccccn2)cc1` (centres unmarked) [Example 17, 2,2-dimethyl-5-(4-octylphenoxy)-N-[1-(2-pyridinyl)ethyl]pentanamide] displayed an IC50 of 450 nM. With `COc1cc(OC)c(NC(=O)C(C)(C)CCCOc2ccc(C(C)(C)C)cc2)c(OC)c1` [Example 10, 5-[4-(1,1-dimethylethyl)phenoxy]-2,2-dimethyl-N-(2,4,6-trimethoxyphenyl)pentanamide] the figure was 44 nM; with `Cc1ccc(NC(=O)C(C)(C)CCCOc2ccc(C(C)(C)C)cc2)c(C)c1` [Example 8, 5-[4-(1,1-dimethylethyl)phenoxy]-N-(2,4-dimethylphenyl)-2,2-dimethylpentanamide], 1400 nM. For `CCCCc1ccc(OCCCC(C)(C)C(=O)Nc2ccc(C)cc2OC)cc1` [Example 3, 5-(4-butylphenoxy)-N-(2-methoxy-4-methylphenyl)-2,2-dimethylpentanamide] the value was 2400 nM; for `Cc1ccc(OCCCC(C)(C)C(=O)NC(C)c2ccccn2)cc1` (centres unmarked) [Example 1, 2,2-dimethyl-5-(4-methylphenoxy)-N-[1-(2-pyridinyl)ethyl]pentanamide], 4800 nM; for `CCC(C)(C)c1ccc(OCCCC(C)(C)C(=O)NC(C)c2ccccn2)cc1` (centres unmarked) [Example 13, 5-[4-(1,1-dimethylpropyl)phenoxy]-2,2-dimethyl-N-[1-(2-pyridinyl)ethyl]pentanamide], 160 nM.

For the origin of these results see patent EP0252524A2, “Aryl- and aralkylamide- derivatives of Omega- (substituted-phenyloxy)-alkanoic acids as inhibitors of acyl-coa: cholesterol acyltransferase and pharmaceuticals containing them” (WARNER-LAMBERT COMPANY, priority 1986, dated 1988).
